# Measured values taken from patent publication US20060069132A1, “Azolecarboxamide herbicides” (priority 2004, published 2006).
# Assays:
# [1] = test system: velvetleaf; assay: Test A pre-/postemergence herbicide test; assay type: in vivo, Abutilon theophrasti
# How it was run: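 Seeds sown in sandy loam received a preemergence directed soil spray of compound in non-phytotoxic solvent with surfactant; postemergence plants (2–10 cm, one- to two-leaf stage) were sprayed to runoff at the same time. After ~10 days in greenhouse, injury was rated visually versus untreated controls (0 = no effect, 100 = complete control).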
# [2] = test system: corn; assay: Test B pre-/postemergence herbicide test; assay type: in vivo, Zea mays; conditions: for Corn plant response rating: postemergence
# How it was run: (§1)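 Flooded paddy rice and barnyardgrass were treated at the 2-leaf stage; upland plantings received compound either on sown seed or on 1- to 4-leaf seedlings. All were kept 13–15 days in a greenhouse and scored visually, 0–100, relative to untreated plants.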
# [3] = test system: large crabgrass; assay: Test B pre-/postemergence herbicide test; assay type: in vivo, Digitaria sanguinalis; conditions: for Crabgrass, Large plant response rating: postemergence
# How it was run: as §1
# [4] = test system: Surinam grass; assay: Test C pre-/postemergence herbicide test; assay type: in vivo, Urochloa decumbens; conditions: for Surinam Grass plant response rating: Preemergence, scale 0 to 100, 0 no effect, 100 complete control
# How it was run: (§2)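 Seeds were planted and sprayed preemergence with test chemicals in a non-phytotoxic solvent mixture containing surfactant; postemergence treatments went onto plants 2 to 18 cm tall (1- to 4-leaf stage). After 12 to 14 days in a greenhouse, injury was rated visually against untreated controls on a 0–100 scale.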
# [5] = test system: cocklebur; assay: Test C pre-/postemergence herbicide test; assay type: in vivo, Xanthium strumarium; conditions: for Cocklebur plant response rating: Preemergence, 500 g ai/ha, scale 0 to 100, 0 no effect, 100 complete control
# How it was run: as §2
# [6] = test system: eastern black nightshade; assay: Test C pre-/postemergence herbicide test; assay type: in vivo, Solanum ptycanthum; conditions: for Nightshade plant response rating: Preemergence, scale 0 to 100, 0 no effect, 100 complete control
# How it was run: as §2
# [7] = test system: pigweed; assay: Test C pre-/postemergence herbicide test; assay type: in vivo, Amaranthus retroflexus; conditions: for Pigweed plant response rating: Preemergence, scale 0 to 100, 0 no effect, 100 complete control
# How it was run: as §2
# [8] = test system: soybean; assay: Test C pre-/postemergence herbicide test; assay type: in vivo, Glycine max; conditions: for Soybean plant response rating: Preemergence, scale 0 to 100, 0 no effect, 100 complete control
# How it was run: as §2
# [9] = test system: velvetleaf; assay: Test C pre-/postemergence herbicide test; assay type: in vivo, Abutilon theophrasti; conditions: for Plant response rating, Velvetleaf: preemergence; for Velvetleaf plant response rating: Preemergence, scale 0 to 100, 0 no effect, 100 complete control
# How it was run: as §2
# [10] = Postemergence, 500 g ai/ha, 0 to 100 scale, 0 no effect, 100 complete control
# [11] = Postemergence, 2000 g ai/ha, 0 to 100 scale, 0 no effect, 100 complete control
# [12] = Preemergence, 2000 g ai/ha, visual rating, 0 to 100 scale (0 no effect, 100 complete control)
# [13] = 500 g ai/ha, visual rating 0-100, 0 no effect, 100 complete control, preemergence
# [14] = Postemergence, 500 g ai/ha, visual rating after 13 to 15 days, scale 0 (no effect) to 100 (complete control)
# [15] = 125 g ai/ha, visual rating, scale 0 (no effect) to 100 (complete control)
# [16] = preemergence, 125 g ai/ha, 0 to 100 scale, 0 is no effect, 100 is complete control
# [17] = 125 g ai/ha, scale 0 (no effect) to 100 (complete control), visual, 12 to 14 days, preemergence
# [18] = 250 g ai/ha, scale 0 to 100 (0 no effect, 100 complete control), visual, 12 to 14 days, preemergence
# [19] = 125 g ai/ha, scale 0 (no effect) to 100 (complete control), visual, 12 to 14 days
# [20] = preemergence, 500 g ai/ha, visual injury, 0 to 100 scale (0 no effect, 100 complete control)
# [21] = 125 g ai/ha, 0 = no effect, 100 = complete control, preemergence
# [22] = 500 g ai/ha, visual rating, 0 = no effect, 100 = complete control, preemergence
# [23] = 500 g ai/ha, visual rating, scale 0 (no effect) to 100 (complete control)
# [24] = 62 g ai/ha, preemergence, scale 0 to 100
# [25] = 250 g ai/ha, scale 0-100, preemergence
# [26] = 500 g ai/ha, scale 0 to 100 (0 no effect, 100 complete control), visual, 12 to 14 days, preemergence
structure (smiles),measurement,setting,value
CC(=NO)c1cccc(NC(=O)c2cc(C(C)(C)C)nn2C)c1 [Compound 102],Velvetleaf plant response rating,[1]; [10],10
same,"Plant response rating, Velvetleaf",[1]; [11],20
same,Velvetleaf plant response rating,"[1]; Preemergence, 500 g ai/ha, visual rating, 0 to 100 scale (0 no effect, 100 complete control)",30
same,Velvetleaf plant response rating,[1]; [12],60
same,"Plant response rating, Corn",[2]; [13],50
same,"Plant response rating, Corn",[2]; [14],40
same,Corn plant response rating,[2]; [15],20
same,"Plant response rating, Corn",[2]; [16],0
same,"Plant response rating, Crabgrass, Large",[3]; [13],100
same,"Plant response rating, Crabgrass, Large",[3]; [14],70
same,"Crabgrass, Large plant response rating",[3]; [15],10
same,"Plant response rating, Crabgrass, Large",[3]; [16],100
same,"Plant response rating (0 = no effect, 100 = complete control), Surinam Grass","[4]; 62 g ai/ha, preemergence",0
same,Surinam Grass plant response rating,[4]; 500 g ai/ha,50
same,"Plant response rating (0 = no effect, 100 = complete control), Cocklebur","[5]; 62 g ai/ha, preemergence",10
same,"Plant response rating, Cocklebur",[5]; [17],20
same,"Plant response rating, Cocklebur",[5]; [18],20
same,Cocklebur plant response rating,[5],70
same,"Plant response rating (0 = no effect, 100 = complete control), Nightshade","[6]; 62 g ai/ha, preemergence",90
same,"Plant response rating, Nightshade",[6]; [17],100
same,Nightshade plant response rating,[6]; 500 g ai/ha,100
same,"Plant response rating (0 = no effect, 100 = complete control), Pigweed","[7]; 62 g ai/ha, preemergence",90
same,"Plant response rating, Pigweed",[7]; [17],100
same,Pigweed plant response rating,[7]; 500 g ai/ha,100
same,"Plant response rating (0 = no effect, 100 = complete control), Soybean","[8]; 62 g ai/ha, preemergence",0
same,"Plant response rating, Soybean",[8]; [17],0
same,Soybean plant response rating,[8]; 500 g ai/ha,20
same,"Plant response rating, Velvetleaf",[9]; [19],20
same,Velvetleaf plant response rating,[9]; 500 g ai/ha,60
CCc1nc(C(C)(C)C)sc1C(=O)Nc1cccc(C(=O)NCC2CC2)n1 [Compound 215],Velvetleaf plant response rating,[1]; [10],30
same,"Plant response rating, Velvetleaf",[1]; [11],30
same,Velvetleaf plant response rating,[1]; [12],30
same,Velvetleaf plant response rating,[1]; [20],15
same,Corn plant response rating (0 to 100 scale),[2]; [21],0
same,"Plant response rating, Corn",[2]; [22],0
same,Corn plant response rating,[2]; [15],0
same,Corn plant response rating,[2]; [23],10
same,"Crabgrass, Large plant response rating (0 to 100 scale)",[3]; [21],0
same,"Plant response rating, Crabgrass, Large",[3]; [22],80
same,"Crabgrass, Large plant response rating",[3]; [15],0
same,"Crabgrass, Large plant response rating",[3]; [23],0
same,"Plant response rating, Surinam Grass",[4]; [24],0
same,"Plant response rating, Surinam Grass",[4]; [25],30
same,"Plant response rating, Surinam Grass",[4]; [26],50
same,"Plant response rating, Cocklebur",[5]; [24],0
same,"Plant response rating, Cocklebur",[5]; [17],0
same,"Plant response rating, Cocklebur",[5]; [25],0
same,Cocklebur plant response rating,[5],60
same,"Plant response rating, Nightshade",[6]; [24],100
same,"Plant response rating, Nightshade",[6]; [17],100
same,"Plant response rating, Nightshade",[6]; [25],100
same,"Plant response rating, Nightshade",[6]; [26],100
same,"Plant response rating, Pigweed",[7]; [24],80
same,"Plant response rating, Pigweed",[7]; [17],100
same,"Plant response rating, Pigweed",[7]; [25],100
same,"Plant response rating, Pigweed",[7]; [26],100
same,"Plant response rating, Soybean",[8]; [24],0
same,"Plant response rating, Soybean",[8]; [25],0
same,"Plant response rating, Soybean",[8]; [26],0
same,"Plant response rating, Velvetleaf","[9]; 62 g ai/ha, scale 0 to 100",0
same,"Plant response rating, Velvetleaf","[9]; 250 g ai/ha, scale 0-100",40
same,"Plant response rating, Velvetleaf","[9]; 500 g ai/ha, scale 0 to 100 (0 no effect, 100 complete control), visual, 12 to 14 days",100
CCNC(=O)c1cc(C)nc(NC(=O)c2cc(C(C)(C)C)nn2CC)c1 [Compound 149],Velvetleaf plant response rating,[1]; [10],30
same,"Plant response rating, Velvetleaf",[1]; [11],40
same,Velvetleaf plant response rating,[1]; [12],25
same,Velvetleaf plant response rating,[1]; [20],0
same,"Plant response rating, Corn",[2]; [13],50
same,Corn plant response rating,[2]; [15],10
same,Corn plant response rating,[2]; [23],30
same,"Plant response rating, Corn",[2]; [16],10
same,"Plant response rating, Crabgrass, Large",[3]; [13],100
same,"Crabgrass, Large plant response rating",[3]; [15],10
same,"Crabgrass, Large plant response rating",[3]; [23],30
same,"Plant response rating, Crabgrass, Large",[3]; [16],90
same,"Plant response rating, Surinam Grass",[4]; [24],0
same,"Plant response rating, Surinam Grass",[4]; [17],5
same,Surinam Grass plant response rating,[4]; 500 g ai/ha,85
same,"Plant response rating, Cocklebur",[5]; [24],0
same,"Plant response rating, Cocklebur",[5]; [17],0
same,"Plant response rating, Cocklebur",[5]; [18],0
same,Cocklebur plant response rating,[5],0
same,"Plant response rating, Nightshade",[6]; [24],80
same,"Plant response rating, Nightshade",[6]; [17],80
same,Nightshade plant response rating,[6]; 500 g ai/ha,95
same,"Plant response rating, Pigweed",[7]; [24],20
same,"Plant response rating, Pigweed",[7]; [17],100
same,Pigweed plant response rating,[7]; 500 g ai/ha,100
same,"Plant response rating, Soybean",[8]; [24],0
same,"Plant response rating, Soybean",[8]; [17],0
same,Soybean plant response rating,[8]; 500 g ai/ha,0
same,"Plant response rating, Velvetleaf","[9]; 62 g ai/ha, scale 0 to 100",0
same,"Plant response rating, Velvetleaf",[9]; [19],0
same,Velvetleaf plant response rating,[9]; 500 g ai/ha,60
